Key:
[1] = test system: patients having major depressive disorder; settings: cited from earlier work
[2] = test system: patients having major depressive disorder; assay: Phase 2 clinical trial with NSI-189 (220 patients, SPCD design), retrospective analysis by baseline cognition; format: in vivo, human; settings: for number needed to treat to achieve one more remission / odds ratio for drug response: 80 mg vs placebo; for odds ratio for drug response: remission at 6 weeks
Procedure: A subsequent Phase 2 study was then performed on 220 patients with major depression (11). In that study, patients were randomized to receive a total daily dose of 40 mg or 80 mg of NSI-189 or placebo in stage 1 of the clinical trial design. […] Treatment in either stage was given for six weeks. This design is termed a Sequential Parallel Clinical Design (SPCD), and is analyzed statistically by combining results in a pre-defined manner for outcomes differences between relevant groups (e.g., drug vs. placebo) in each of the stages individually. There are two depression outcome measures accepted by the United States Food and Drug Administration (FDA) for the evaluation of adults. See the June 2018 FDA draft guidance entitled “Major Depressive Disorder: Developing Drugs for Treatment.” These are the Montgomery-Asberg Depression Rating Scale (MADRS), which was the primary outcome in this study, as well as the Hamilton Depression Rating Scale (HDRS) which was a key secondary outcome measure. […] It was reported that any benefits of NSI-189 on depression and cognition are independent effects (27).
A retrospective analysis of the 220-patient phase 2 study of NSI-189 discussed above was performed. In the study, patients having major depressive disorder were randomized to receive a total daily dose of 40 mg or 80 mg of NSI-189 or placebo in stage 1 (first 6 weeks) of the clinical trial design. […] The remaining of patients continued on their treatment for stage 2 of the trial. Treatment in either stage was given for six weeks. Patients were eligible for study participation if they were between the ages of 18-60 years, with current major depressive disorder of at least 8 weeks duration according to the DSM-5, as diagnosed by the Structured Clinical Interview for the DSM-5 clinical trial version (SCID-5-CT) during the screen and remote assessment visits, and if they were scored at least 20 at screen, remote assessment, and baseline visits on the Montgomery-Asberg Depression Rating Scale (MADRS). The phase 2 study collected cognitive task performance data prior to treatment, and then again after both stage 1 and stage 2 of the treatment protocol. The purpose of doing so was to determine whether treatment with this compound results in improvement in cognitive functioning, as measured by a variety of behavioral measures.
Prior to the inventor's retrospective analysis, there was no consideration as to using behavioral measures to predict treatment outcome nor was there any analysis conducted to this effect. There was no consideration of using cognitive performance as a predictor but only as an outcome measure. […] The tasks in this battery included a simple reaction time (RT) task, a choice RT task, a one-back working memory task, and a visual learning task. Moreover, given the conversion to z-score, a composite cognitive task performance score could be computed by averaging the z-scores for each of the four tasks in the battery. Analyses focused on the MADRS primary outcome of the study, with supporting evidence subsequently produced by examining the HDRS key secondary outcome, as well as the CGI. Statistical analyses focused first on the complete trial (incorporating both stage 1 and stage 2 outcomes), using the SPCD analytic approach reported in the original study and thus aligned could be compared with the original statistical analysis plan. We used linear mixed models to predict change from baseline (at 2, 4, and 6 weeks) in clinical scores and included covariates for time, time x group, time x baseline MADRS and baseline MADRS. These covariates likewise were used in the original study, and thus results here can be compared with the all-comer results reported previously. Statistical significance was thus assessed on the primary outcome (MADRS change from baseline at 6 weeks across the SPCD design) and similar secondary outcomes (HDRS and CGI change from baseline at 6 weeks). […]

[3] = test system: patients with major depression; settings: total daily doses of 40 mg, 80 mg or 120 mg; 18 patients on active dose (ref. 10); cited from earlier work

## CC(C)CCNc1ncccc1C(=O)N1CCN(Cc2ccccc2)CC1 [NSI-189, (4-benzylpiperazin-1-yl)-[2-(3-methylbutylamino)pyridin-3-yl]methanone]
[1]; 40 mg dose, all-comers, not corrected for multiple comparisons
  effects on several secondary measures compared to placebo: nominally significant effects
[1]; 80 mg daily dose, entire study population (ref. 11)
  efficacy on any study measure: did not demonstrate efficacy
[1]; original all-comer analysis, 40 mg or 80 mg/day, full SPCD analysis or each stage alone (ref. 11)
  antidepressant efficacy on MADRS primary outcome and HDRS key secondary measure: failed to demonstrate any evidence of antidepressant efficacy
[2]; 40 mg or 80 mg/day, good cognition group (composite score above patient mean), p=0.25
  change in MADRS scores, either drug arm versus placebo: no significant differences
[2]; 40 mg/day, poor cognition group (cognitive composite score), p=0.39
  change in MADRS scores, 40 mg group versus placebo: not significant
[2]; 80 mg arm from stage 1, composite score, 12 weeks of treatment
  durability of MADRS benefit, poor cognition compared to good cognition patients: stable and consistent throughout all 12 weeks of treatment
[2]; all-comer sample, 6 weeks, stage 1
  number needed to treat to achieve one more remission: 19.6
[2]; all-comer sample, stage 1
  odds ratio for drug response: 1.3
[2]; poor cognition subpopulation, 6 weeks, stage 1
  number needed to treat to achieve one more remission: 3.2
[2]; poor cognition subpopulation, stage 1
  odds ratio for drug response: 4.7
[2]; 80 mg/day, choice RT task, lenient cutoff z=+0.5, p=0.12
  change in MADRS scores, 80 mg versus placebo: did not yield a significant effect
[2]; 80 mg/day, cognitively impaired patients, six weeks, both stages, items 1, 7, 8, 9
  Cohen's d effect size per MADRS item, 80 mg versus placebo: notable effects
[2]; 80 mg/day, good cognition patients, 6 weeks, stage 1, chi-square p=0.014 vs poor cognition
  remission rate (score of 10 or less on the MADRS): 12%
[2]; 80 mg/day, late-life depression (LLD) group, 50 years or older
  MADRS depression score improvement, 80 mg over placebo: greater with 80 mg over placebo
[2]; 80 mg/day, non-LLD group, younger than 50
  MADRS depression score improvement, 80 mg versus placebo: indistinguishable between the two arms
[2]; 80 mg/day, poor cognition based on choice RT task, p=0.008
  symptom change on the HDRS, 80 mg relative to placebo: robust and significant effect
[2]; 80 mg/day, poor cognition defined by choice RT task, SPCD p=0.005
  change in MADRS scores, 80 mg versus placebo: robust and significant improvement over placebo
[2]; 80 mg/day, poor cognition defined by choice RT, p=0.0002
  Clinical Global Impression (CGI) severity, 80 mg over placebo: robust and significant advantage
[2]; 80 mg/day, poor cognition defined by one-back working memory, SPCD p=0.08
  change in MADRS scores, 80 mg versus placebo: trend-level significance
[2]; 80 mg/day, poor cognition defined by simple RT task, SPCD p=0.09
  change in MADRS scores, 80 mg versus placebo: trend-level significance
[2]; 80 mg/day, poor cognition group (cognitive composite score below patient mean), SPCD analysis p=0.014, 6 weeks
  change in MADRS scores, 80 mg arm versus placebo: robust and statistically significant effect
[2]; 80 mg/day, poor cognition on choice RT task, cutoff z=0, p=0.007
  change in MADRS scores, 80 mg versus placebo: significant superiority over placebo
[2]; 80 mg/day, poor cognition on choice RT task, cutoff z=-0.5, p=0.009
  change in MADRS scores, 80 mg versus placebo: significant superiority over placebo
[2]; 80 mg/day, poor cognition patients (composite score), 6 weeks, stage 1, chi-square p=0.017 vs placebo
  remission rate (score of 10 or less on the MADRS): 47%
[2]; 80 mg/day, poor cognition patients (composite score), p=0.002
  Clinical Global Impression (CGI) severity, 80 mg versus placebo: significantly more effective than placebo
[2]; 80 mg/day, poor cognition patients (composite score), p=0.038
  symptom change on the HDRS, 80 mg over placebo: significantly greater efficacy
[2]; good cognition group, 6 weeks, stage 1
  benefit in terms of remission rate: No benefit
[2]; patients with poor self-reported cognition (CPFQ score >25)
  MADRS depression score, difference between treatment arms: no difference is seen between treatment arms
[2]; week 6, stage 1 and stage 2, poor cognition subpopulation relative to all-comer sample
  Cohen's d effect sizes (MADRS, HDRS, CGI), 80 mg versus placebo: effect sizes increase substantially
[3]
  potential antidepressant efficacy: promising evidence

Source: US20250177386A1, “METHOD OF TREATMENT OF DEPRESSED PATIENTS WITH POOR COGNITION AND SELECTION OF OTHER PATIENTS BENEFITING FROM A BENZYLPIPERAZINE-AMINOPYRIDINE AGENT” (Alto Neuroscience, Inc., priority 2021, published 2025)
